Experimental data published in paper PMC11522901, “Translation of Deoxyribonucleic Acid into Synthetic Alpha Helical Peptides for Darwinian Evolution” (JACS Au, 2024).

Tested on: GST-MDM2
Assay: Binder/nonbinder affinity selection on GST-MDM2 beads with plate reader readout
Assay type: binding
Details: 1:1 mixture, 500 nM each, 2 h at 4 °C with GST-MDM2 on GSH beads, four washes, elution 95 °C 5 min
Excerpt: We next investigated whether a templated ligation could yield peptides in an α-helical conformation. Since CD-based analyses would be difficult to interpret given the PNA, we opted to assess the helical nature of the peptide using binding to a target that requires this conformation. To this end, we used MDM2, an important regulator of the p53 tumor suppressor, which binds to an α-helix of p53[47] and has been a testing ground for stapling technologies[48]−[52] and screening technologies.[53]−[56] Additionally, several X-ray diffraction structures of the MDM2-peptide complex have been reported, supporting the importance of the helicity of the peptide.[51],[57],[58] […] Affinity selection of this mixture against GST-MDM2 immobilized on GSH beads was monitored by fluorescence quantification of the supernatant solution. […]
Ten μL of MagneGST glutathione particles (Promega #V8611) were blocked with 1 mg/mL BSA in PBS-CHAPS (10 mM phosphate buffer, 2.7 mM KCl, and 137 mM NaCl, pH 7.4, with 0.05% CHAPS) three times at room temperature for 5 min. […] The initial library, post-incubation library, washes, and elution were analyzed by a plate reader (SpectraMax i3x, in black 96-well microtiter plates (Thermo Scientific #267342)). […]

**Q.** How did the “recovery in heat elution after affinity selection (fluorescence)” value turn out when “PNA- Gly Ser Nle Cba Gln Ala Trp Tyr Glu Nle Phe Thr Leu Gly -PNA (head to tail) [binder]” was run?
**A.** Its value is “strong recovery”.
